Test results: US5334528A (priority 1989, dated 1994)
Values joined by “and” are separate entries in the source; they are usually repeats but may differ in a detail not shown here. Equal entries are not always repeated. Structures can show the parent of a compound that is named as a salt.

Tested on: monoclonal antibody from hybridoma Hept-2
Type: binding, mice

Structure (SMILES) | % Crossreactivity | I50
Cc1cc(O)ccc1Cl [4-Cl-3-Me phenol] | 0% | 
ClC(Cl)(Cl)C(Cl)(Cl)Cl [hexa-Cl-ethane] | 0% | 
Oc1cc(Cl)c(Cl)cc1O [4,5-diCl-catecol] | 0% | 
Clc1ccc2ccccc2c1 [2-Cl-naphthalene] | 0% | 
O=[N+]([O-])c1ccc(O)c([N+](=O)[O-])c1 [2,4-dinitro-phenol] | 0.2% | 
O=S1OCC2C(CO1)C1(Cl)C(Cl)=C(Cl)C2(Cl)C1(Cl)Cl (stereo not drawn) [a-Endosulfan, alpha-endosulfan] | 43% | 
O=[N+]([O-])c1ccccc1O [2-nitro-phenol] | 0% | 
Clc1ccc(Cl)c(Cl)c1 [1,2,4-triCl-Bz] | 0% | 
Clc1cccc(Cl)c1 [1,3-diCl-Bz] | 0% | 
Oc1ccccc1 [phenol] | 0% | 
O=C(O)COc1ccc(Cl)cc1Cl [2,4-D] | 0% | 
O=[N+]([O-])c1ccc(O)cc1 [4-nitro-phenol] | 0% | 
ClC1=C(Cl)C2(Cl)C3C(Cl)C=CC3C1(Cl)C2(Cl)Cl (stereo not drawn) [heptachlor, 1,-exo-,4,5,6,7,8,8,-Heptachloro-3a,4,7,7a-tetrahydro-4,7-methanoindene] | 100% | 2-4 ng/well and 1-10 ng/well
Clc1ccccc1Cl [1,2-diCl-Bz] | 0% | 
Clc1ccccc1 [Chlorobenzene] | 0% | 
O=S1(=O)OCC2C(CO1)C1(Cl)C(Cl)=C(Cl)C2(Cl)C1(Cl)Cl (stereo not shown) [Endosulfansulfate, endosulfan sulfate] | 182% | 
ClC(Cl)=C(Cl)C(Cl)=C(Cl)Cl [hexa-Cl-butadiene] | 0.4% | 
ClC1=C(Cl)C2(Cl)C3C4OC4C(Cl)C3C1(Cl)C2(Cl)Cl (stereo not shown) [heptachlor epoxide] | 100% | 1-10 ng/well
Oc1c(Cl)cc(Cl)cc1Cl [2,4,6-triCl-phenol] | 0% | 

Structure (SMILES) | % Crossreactivity | I50
ClC1=C(Cl)C2(Cl)C3C4C=CC(C4)C3C1(Cl)C2(Cl)Cl (stereo not drawn) [aldrin, 1,2,3,4,10,10-Hexachloro-1,4,4a,5,8,8a hexahydro-1,4-exo, endo-5,8,-dimethanonaphthalene (HHDN)] | 100% | 1-10 ng/well
Clc1ccc(Cl)cc1 [1,4-diCl-Bz] | 0% | 
O=[N+]([O-])c1cc(Cl)cc(Cl)c1O [2,4-diCl-6-nitrophenol] | 0% | 
Oc1ccc(Cl)cc1Cl [2,4-diCl-phenol] | 0% | 
Oc1cc(Cl)c(Cl)cc1Cl [2,4,5-triCl-phenol] | 0% | 
Oc1ccccc1Cl [2-Cl-phenol] | 0% | 
O=S1OCC2C(CO1)C1(Cl)C(Cl)=C(Cl)C2(Cl)C1(Cl)Cl (stereo not shown) [Endosulfan (mix), 6,7,8,9,10,10-Hexachloro-1,5,5a,6,9,9a-hexahydro-6,9,-methano-2,4,3-benzo[e]-dioxathiepin-3-oxide] | 173% | 
ClC1C(Cl)C(Cl)C(Cl)C(Cl)C1Cl (stereo not shown) [Lindand (BHC), 1,2,3,4,5,6-Hexachlorocyclohexane] | 7.3% | 
O=C1C2(Cl)C3(Cl)C4(Cl)C(Cl)(Cl)C5(Cl)C3(Cl)C1(Cl)C5(Cl)C24Cl (stereo not shown) [Kepone, Decachloro-octahydro-1,3,4,-metheno-2H-cyclobuta(cd) pentalen-2-one] | 5% | 
O=[N+]([O-])c1cc(Cl)ccc1Cl [2,5-diCl-nitroBz] | 0% | 
O=C(O)COc1cc(Cl)c(Cl)cc1Cl [2,4,5-triCl-phenoxyacetic acid] | 0% | 
OCC(Cl)(Cl)Cl [2,2,2-tri-Cl-ethanol] | 0.4% | 
ClC1=C(Cl)C2(Cl)C3C4CC(C5OC45)C3C1(Cl)C2(Cl)Cl [endrin, (1R, 4S, 5R, 8S) 1,2,3,4,10,10-hexachloro-6,7-epoxy-1,4,4a,5,6,7,8,8a-octahydro-exo-5,8,dimethano-naphthalene] | 150% | 1-10 ng/well
ClC1=C(Cl)C2(Cl)C3C(Cl)C(Cl)CC3C1(Cl)C2(Cl)Cl (stereo not shown) [chlordane, 2,3,4,5,6,7,8,8-Octachloro-2,3,3a,4,7,7a-hexahydro-4,7-methanoindene] | 75% | 1-10 ng/well
O=S1OCC2C(CO1)C1(Cl)C(Cl)=C(Cl)C2(Cl)C1(Cl)Cl (stereo not drawn) [β-Endosulfan, beta-endosulfan] | 250% | 
Cc1ccc(O)c(C)c1 [2,4-DiMe-phenol] | 0% | 
Clc1ccc(C(c2ccc(Cl)cc2)C(Cl)(Cl)Cl)cc1 [DDT] | 0% | 
Oc1c(Cl)c(Cl)c(Cl)c(Cl)c1Cl [penta-Cl-phenol] | 0% | 
ClC1=C(Cl)C(Cl)(Cl)C(Cl)=C1Cl [hexa-Cl-cyclopentadiene] | 1.6% | 
